Measured values from patent EP4574175A1, “PRODRUG FOR ANTI-AGING RELATED DISEASES AND USE METHOD THEREFOR” (BEIJING SUNCELL BIO-MEDICAL CO., LTD., priority 2022, dated 2024).
Like-named read-outs stand apart in the source and are kept apart here.

Assays:
in vitro [1] = settings: mouse
Procedure: […] Samples were taken and analyzed at time points 0, 15, 30, 45 and 60 minutes during the incubation. The reaction was terminated by adding an amount of acetonitrile solution containing the internal standard. […] The residual percentage, half-life, intrinsic clearance, amplified clearance, hepatic clearance and hepatic extraction ratio were determined. The entire experiment was performed in triplicate. All data calculations were performed by Microsoft Excel software. Peak areas were detected by extracting the ionic spectrum. The in vitro half-life (t1/2) of the parent compound was detected by fitting the natural logarithm of the percentage elimination of the parent compound linearly to time.
The in vitro intrinsic clearance (in µL/min/mg protein) was calculated using the following equation: in vitro CLint = kV/N
The amplified clearance (in mL/min/kg) was calculated using the following equation: Amplified CLint = kV/N × the amplification factor [formula]
The hepatic clearance (in mL/min/kg) was calculated using the following equation: The predicted hepatic CLH = (Q×Fu/RB×theamplifiedCLint)/([…]) [formula] • V = the incubation volume per well (0.2 mL); • N = the total amount of protein (mg) • Q = the hepatic blood flow (mL/min/kg) • Fu = the plasma free rate (assumed to be 1) • RB = the whole blood partition coefficient (assumed to be 1)
The hepatic […] was calculated using the following equation: The hepatic extraction ratio(ER) = (thepredictedhepaticCLH)/Q [formula]

[2] = human, 1 µM
[3] = monkey, 1 µM
[4] = dog, 1 µM
[5] = rat, 1 µM
in vitro [6] = settings: human
in vitro [7] = settings: monkey
in vitro [8] = settings: dog
in vitro [9] = settings: rat

CLint scaled at 1 µM (in vitro [1]): 87.8 mL/min/kg
The hepatic extraction ratio (E) (in vitro [1]; 1 µM): 0.98
CLint scaled at 1 µM (in vitro [1]; microsomes): 3630 mL/min/kg
half-life at 1 µM (in vitro [1]; microsomes): 1.68 min
microsomal CLint at 1 µM (in vitro [1]; microsomes): 824 µL/min/mg
The hepatic extraction ratio (E) [2]: 0.97
The hepatic extraction ratio (E) [3]: 0.97
The hepatic extraction ratio (E) [4]: 0.99
The hepatic extraction ratio (E) [5]: 0.95
CLint scaled at 1 µM (in vitro [6]): 20.2 mL/min/kg
CLint scaled at 1 µM (in vitro [6]; microsomes): 774 mL/min/kg
half-life at 1 µM (in vitro [6]; microsomes): 2.25 min
microsomal CLint at 1 µM (in vitro [6]; microsomes): 617 µL/min/mg
CLint scaled at 1 µM (in vitro [7]; The predicted intrinsic hepatic clearance Cl int): 42.1 mL/min/kg
half-life at 1 µM (in vitro [7]; microsomes): 1.72 min
microsomal CLint at 1 µM (in vitro [7]; microsomes): 806 µL/min/mg
CLint scaled at 1 µM (in vitro [7]; microsomes, The amplified intrinsic clearance Cl int): 1210 mL/min/kg
CLint scaled at 1 µM (in vitro [8]): 30.4 mL/min/kg
CLint scaled at 1 µM (in vitro [8]; microsomes): 2050 mL/min/kg
half-life at 1 µM (in vitro [8]; microsomes): 1.68 min
microsomal CLint at 1 µM (in vitro [8]; microsomes): 824 µL/min/mg
CLint scaled at 1 µM (in vitro [9]): 52.3 mL/min/kg
CLint scaled at 1 µM (in vitro [9]; microsomes): 1010 mL/min/kg
half-life at 1 µM (in vitro [9]; microsomes): 2.47 min
microsomal CLint at 1 µM (in vitro [9]; microsomes): 562 µL/min/mg
SMILES: O=c1ccc2ccc(O)cc2o1 [7-hydroxycoumarin]
